One data set relates to EAE. The experiment in a line: EAE induction and scoring (MOG35-55/CFA/PTX). The data set is classed as in vivo, mice. The text has this:
Cd73^−/− mice have been previously described (Thompson et al., “Crucial Role for Ecto-5′-Nucleotidase (CD73) in Vascular Leakage During Hypoxia,” J. Exp. Med. 200:1395-1405 (2004), which is hereby incorporated by reference in its entirety) and have been backcrossed to C57BL/6 for 14 generations. Cd73^−/− mice have no overt susceptibility to infection and appear normal based on the size and cellular composition of their lymphoid organs and their T and B cell responses in in vivo and in vitro assays (Thompson et al., “Crucial Role for Ecto-5′-Nucleotidase (CD73) in Vascular Leakage During Hypoxia,” J. Exp. Med. 200:1395-1405 (2004), which is hereby incorporated by reference in its entirety). C57BL/6 and tcrα^−/− mice on the C57BL/6 background were purchased from The Jackson Laboratories. Mice were bred and housed under specific pathogen-free conditions at Cornell University or the University of Turku. For adenosine receptor blockade experiments, mice were given drinking water supplemented with 0.6 g/L of caffeine (Sigma) or 2 mg/kg SCH58261 (1 mg/kg s.c. and 1 mg/kg i.p.) in DMSO (45% vol. in PBS) or 45% DMSO alone starting 1 day before EAE induction and continuing throughout the experiment. All procedures performed on mice were approved by the relevant animal review committee.
EAE was induced by subjecting mice to the myelin oligodendrocyte glycoprotein (“MOG”) EAE-inducing regimen as described in Swanborg, “Experimental Autoimmune Encephalomyelitis in Rodents as a Model for Human Demyelinating Disease,” Clin. Immunol. Immunopathol. 77:4-13 (1995) and Bynoe et al., “Epicutaneous Immunization with Autoantigenic Peptides Induces T Suppressor Cells that Prevent Experimental Allergic Encephalomyelitis,” Immunity 19:317-328 (2003), which are hereby incorporated by reference in their entirety. […] Mice were scored daily for EAE based on disease symptom severity; 0=no disease, 0.5-1=weak/limp tail, 2=limp tail and partial hind limb paralysis, 3=total hind limb paralysis, 4=both hind limb and fore limb paralysis, 5=death. […]
As CD73 catalyzes the breakdown of AMP to adenosine and ARs are expressed in the CNS (Tsutsui et al., “A1 Adenosine Receptor Upregulation and Activation Attenuates Neuroinflammation and Demyelination in a Model of Multiple Sclerosis,” J. Neurosci. 24:1521-1529 (2004)); Rosi et al., The Influence of Brain Inflammation Upon Neuronal Adenosine A2B Receptors,” J. Neurochem. 86:220-227 (2003), which are hereby incorporated by reference in their entirety), it was next determined if AR signaling is important during EAE progression. […] Since CD73 is highly expressed on the choroid plexus (FIG. 6C), it was next determined if ARs are also expressed on the choroid plexus. […]

A further data set has as its system Z310 cells. The experiment in a line: Jurkat cell migration across Z310 choroid plexus cell transwell. In kind it is cell-based, murine. Conditions: 24 hours, n=1. On the procedure: To test the hypothesis, Transwell membranes were seeded with Z310 cells and allowed to grow to confluencey. 2×10^6 Jurkat cells were added to the upper chamber with or with out NECA (n=1, general AR agonist), CCPA (n=1, A1 AR agonist), CGS 21860 (n=1, A2A AR agonist), or DMSO vehicle(n=1). After 24 hours, migrated cells in the lower chamber were counted. Values are relative to the number of cells that migrate through non-Z310 seeded transwells and the results are shown in FIG. 12.

For the next data set, the system named is blood brain barrier. The experiment in a line: Fluorescently labeled dextran extravasation into mouse brain (fluorimetry). The data set is classed as in vivo, mice. Conditions: wild type mice, 10,000 Da FITC-dextran, i.v., 3 h, vs vehicle. How it is done: The adenosine receptor agonists NECA, CCPA, CGS 21860, and SCH 58261 (Tocris, Ellisville, Mo.) were each dissolved in DMSO then diluted in PBS to the desired concentration; in most cases final DMSO concentrations were <0.5% (vol/vol). Lexiscan (Regadenoson; TRC, Inc., Toronto) was dissolved in PBS. For vehicle controls, DMSO was diluted in PBS to the same concentration. Dehydrated dextrans labeled with either FITC or Texas Red (Invitrogen, Carlsbad, Calif.) were re-suspended in PBS to 10 mg/ml. All experiments involving dextran injection used 1.0 mg dextran in PBS. In experiments where drug and dextran were injected concomitantly, 1.0 mg of dextran was mixed with the drug to the desired concentration in a final volume of 200 μl. In dose-response experiments, drugs and dextrans were injected concomitantly. All injections, except injections of SCH 58261, were retro-orbital i.v. with a 27-gauge needle. In the SCH 58261 experiment, SCH 58261 injections, 1 mg/kg, were intraperitoneal and mice were pre-dosed with this concentration daily for 4 days prior to the day of the experiment. An additional injection was administered at the time of the experiment. Vehicle/drug and dextrans were injected on day 5 and tissues were collected 3 h after vehicle/drug administration. In Lexiscan experiments, Lexiscan was administered i.v. with 3 injections, 5 min apart and tissues were collected at 15 min unless otherwise indicated.
In dose-response experiments and experiments with the A1 AR and A2A AR knock-out mice, drugs and dextrans were injected concomitantly. After 3 h, the mice were anesthetized with ketamine/xylazine and subjected to a nose cone containing isoflurane. They were perfused with 25-50 ml ice-cold PBS through the left ventricle of the heart then decapitated. Their brains were removed, weighed and frozen for later analysis.
Ice-cold 50 mMTris-Cl (pH 7.6) was added to frozen brains (100 μl per 100 mg brain) and were to thawed on ice. They were homogenized with a dounce homogenizer and centrifuged at […] in a microfuge for 30 min at room temperature (rt). The supernatants were transferred to new tubes and an equal volume absolute methanol was added. The samples were centrifuged again at […] for 30 min at rt. Supernatant (200 μl) was transferred to a Corning costar 96 well black polystyrene assay plate (clear bottom). Additionally, a series of standards containing 0.001-10 pg/ml dextran in 50% Tris-Cl/50% absolute methanol (vol/vol) was added to each plate. Absolute concentrations of dextrans were derived from these standard curves. Fluorimetric analysis was performed on a BioTek (Winooski, Vt.) Synergy 4. FITC-dextran was detected at 488/519 (excitation/emission) and Texas Red-dextran was detected at 592/618.

The test system of a further data set is hCMEC/D3 cells. The experiment in a line: Jurkat cell migration across hCMEC/D3 transwell in vitro BBB. In kind it is cell-based, human. Particulars: 24 hours. How it is done:
hCMEC/D3 cells were seeded onto Transwell and allowed to grow to confluencey. 2×10^6 Jurkat cells were added to the upper chamber with or without NECA (general adenosine receptor [AR] agonist), CCPA (A1 AR agonist), CGS 21860 (A2A AR agonist), or DMSO vehicle. After 24 hours, migrated cells in the lower chamber were counted. Values are relative to the number of cells that migrate through non-[…]3 seeded transwells.

Another data set relates to HCMECD3 cells. The experiment in a line: cAMP levels in human brain endothelial cells (cAMP Screen kit). In kind it is cell-based. Conditions: 15 minutes. On the procedure:
[…]3 cells were grown to confluencey on 24 well plates. As adenosine receptor (“AR”) stimulation is known to influence cAMP levels, cells were treated with or without various concentrations of NECA (general AR agonist), CCPA (A1 AR agonist), CGS 21860 (A2A AR agonist), DMSO vehicle, or Forksolin (induces cAMP). After 15 minutes, lysis buffer was added and the cells were frozen at -80 C to stop the reaction. Duplicate samples were used for each condition. cAMP levels were assayed using a cAMP Screen kit (Applied Biosystems, Foster City, Calif.).

Another data set deals with Bend.3 cells. The experiment in a line: F-actin (phalloidin) staining of endothelial cells. The data set is classed as cell-based, mouse. Conditions: BECs, 1 μM, 3 or 30 min, vs vehicle. How it is done:
Bend.3 cells were grown (as described above) on circular cover slips in 24-well plates. Cells were treated for 3 or 30 min with 1 μM CCPA, 1 μM […], DMSO or media alone. Cover slips were washed with PBS, fixed in 4% paraformaldahyde, washed again in PBS and then permeabilized with 0.5% TritonX-100 in PBS. After washing in PBS/1% BSA, cover slips were blocked with 1% BSA then stained with Phallodin-Alexa 568. Cover slips were washed and mounted on slides with ProlongGold containing DAPI (Invitrogen). Images were obtained on an Olympus BX51 fluorescent microscope.

The conditions of data set [1]: Klabunde 1983; cited from earlier work.

On to `Cn1c(=O)c2c(ncn2C)n(C)c1=O` [caffeine], for which the EAE development result in the data set with EAE (cd73−/− mice, caffeine 0.6 g/L in drinking water) was “did not develop EAE”; with EAE (wild type mice, caffeine 0.6 g/L in drinking water from 1 day prior to and throughout EAE experiment), “dramatically protected against EAE development”.
As to `CCNC(=O)[C@H]1O[C@@H](n2cnc3c(N)nc(NCCc4ccc(CCC(=O)O)cc4)nc32)[C@H](O)[C@@H]1O` [CGS 21680, 4-[2-[[6-Amino-9-(N-ethyl-b-D-ribofuranuronamidosyl)-9H-purin-2-yl]amino]ethyl]benzenepropanoic acid], in the data set with Z310 cells, the “lymphocyte (Jurkat) migration across the CP” value is “promoted lymphocyte migration across the CP”. Besides, the “dextran entry into the CNS” value in the data set on blood brain barrier is “increased dextran entry into the CNS”. For the same molecule, in the data set with hCMEC/D3 cells, the “lymphocyte (Jurkat) migration across the in vitro BBB” value was “promoted lymphocyte migration across the in vitro BBB when used at a lower concentration”. In the data set with HCMECD3 cells, the cAMP levels entry is given as “slightly increased cAMP levels”.
Turning to `OC[C@H]1O[C@@H](n2cnc3c(NC4CCCC4)nc(Cl)nc32)[C@H](O)[C@@H]1O` [CCPA, 2-chloro-N^6-cyclopentyladenosine], in the data set on Bend.3 cells, the “actinomyosin stress fiber formation” value is given as “marked induction of actinomycin stress fibers”. The “lymphocyte (Jurkat) migration across the CP” value in the data set with Z310 cells is “induced lymphocyte migration at high levels”. The “dextran entry into the CNS” value with blood brain barrier is recorded as “increased dextran entry into the CNS”. Moreover, the “lymphocyte (Jurkat) migration across the in vitro BBB” value in the data set on hCMEC/D3 cells was “induced lymphocyte migration at high levels”. The cAMP levels entry in the data set on HCMECD3 cells is given as “increased cAMP levels”.
For the molecule `Nc1ncnc2c1ncn2[C@@H]1O[C@H](CO)[C@@H](O)[C@H]1O` [adenosine], the half-life (as a rule, the time in which the quantity being followed falls by half) in data set [1] is less than 10 s.

B1: PEG-ADA: PEGylated adenosine deaminase (protein, UniProt P56658 2-363, looked up)
Adenosine deaminase: AQTPAFNKPKVELHVHLDGAIKPETILYYGRKRGIALPADTPEELQNIIGMDKPLSLPEFLAKFDYYMPAIAGCREAVKRIAYEFVEMKAKDGVVYVEVRYSPHLLANSKVEPIPWNQAEGDLTPDEVVSLVNQGLQEGERDFGVKVRSILCCMRHQPSWSSEVVELCKKYREQTVVAIDLAGDETIEGSSLFPGHVKAYAEAVKSGVHRTVHAGEVGSANVVKEAVDTLKTERLGHGYHTLEDATLYNRLRQENMHFEVCPWSSYLTGAWKPDTEHPVVRFKNDQVNYSLNTDDPLIFKSTLDTDYQMTKNEMGFTEEEFKRLNINAAKSSFLPEDEKKELLDLLYKAYGMPSPASAEQCL
modifications: PEGylated
notes: PEGylated adenosine deaminase
For B1, in the data set with EAE (wild-type mice, 15 units/kg i.p. every 4 days, vs PBS vehicle), the EAE development entry is “inhibits the development of EAE”.

Values taken from US20130224110A1, “USE OF ADENOSINE RECEPTOR SIGNALING TO MODULATE PERMEABILITY OF BLOOD-BRAIN BARRIER” (CORNELL UNIVERSITY, priority 2010, published 2013).
